Columns and labels:
2.2.15 cells = test: Antiviral activity in 2.2.15 cells: reduction of viral product accumulation (qPCR, HBsAg/HBeAg ELISA); format: cell-based, HBV; settings: Hepatitis B virus, 120 h, day 5 post treatment, concentration reducing viral product accumulation in cell lysates or supernatants by 50% relative to no drug controls
How it was run: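 HBV-producing 2.2.15 cells, 35,000/well, treated with 5-fold serial compound dilutions at 0.5% final DMSO for 5 days. Lysate HBV DNA by qPCR or supernatant HBsAg/HBeAg by ELISA; EC50 is 50% reduction versus no-drug control, binned A<0.1 μM, B 0.1-1 μM, C>1 μM.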

[1] = Compound induced cellular toxicity in HepG2 cells (ATPlite); format: cell-based; settings: human, three days, ATPlite 1 Step, concentration reducing total ATP levels by 50% relative to no drug controls
Experimental: At day 3, post seeding cells are treated with ATPlite 1 Step according to the manufacturer's instructions.

Structure (SMILES)	EC50 (2.2.15 cells) [µM]	CC50 at 3 days [1] [µM]
Cc1cccc2c3c(oc12)-c1c(F)c(=O)c(C(=O)O)cn1[C@H](C(C)(C)C)C3 [Example 64, (S)-6-(tert-butyl)-1-fluoro-11-methyl-2-oxo-6,7-dihydro-2H-benzofuro[2,3-a]quinolizine-3-carboxylic acid]	< 0.1	> 25
CC(C)(C)[C@@H]1Cc2c(oc3c(C4CC4)cccc23)-c2c(F)c(=O)c(C(=O)O)cn21 [Example 65, (S)-6-(tert-butyl)-11-cyclopropyl-1-fluoro-2-oxo-6,7-dihydro-2H-benzofuro[2,3-a]quinolizine-3-carboxylic acid]	< 0.1	> 25
CC(C)[C@@H]1Cc2c(oc3c(-c4ccoc4)cccc23)-c2cc(=O)c(C(=O)O)cn21 [Example 66, (S)-11-(furan-3-yl)-6-isopropyl-2-oxo-6,7-dihydro-2H-benzofuro[2,3-a]quinolizine-3-carboxylic acid]	< 0.1	10 to 25
CC(C)[C@@H]1Cc2c(oc3c(-c4ccco4)cccc23)-c2cc(=O)c(C(=O)O)cn21 [Example 67, (S)-11-(furan-2-yl)-6-isopropyl-2-oxo-6,7-dihydro-2H-benzofuro[2,3-a]quinolizine-3-carboxylic acid]	< 0.1	10 to 25
CC(C)[C@@H]1Cc2c(oc3cc(OC(F)F)ccc23)-c2cc(=O)c(C(=O)O)cn21 [Example 68, (S)-10-(difluoromethoxy)-6-isopropyl-2-oxo-6,7-dihydro-2H-benzofuro[2,3-a]quinolizine-3-carboxylic acid]	< 0.1	< 10
CC(C)[C@@H]1Cc2c(oc3cc(C#N)ccc23)-c2cc(=O)c(C(=O)O)cn21 [Example 69, (S)-10-cyano-6-isopropyl-2-oxo-6,7-dihydro-2H-benzofuro[2,3-a]quinolizine-3-carboxylic acid]	< 0.1	> 25
CC(C)[C@@H]1Cc2c(oc3c(-c4cnsc4)cccc23)-c2cc(=O)c(C(=O)O)cn21 [Example 70, (S)-6-isopropyl-11-(isothiazol-4-yl)-2-oxo-6,7-dihydro-2H-benzofuro[2,3-a]quinolizine-3-carboxylic acid]	< 0.1	> 25
CC(C)[C@@H]1Cc2c(oc3c(N4CCC(F)(F)C4)cccc23)-c2cc(=O)c(C(=O)O)cn21 [Example 71]	< 0.1	< 10
CC(C)[C@@H]1Cc2c(oc3cc(-n4cccn4)ccc23)-c2cc(=O)c(C(=O)O)cn21 [Example 72, (S)-6-isopropyl-2-oxo-10-(1H-pyrazol-1-yl)-6,7-dihydro-2H-benzofuro[2,3-a]quinolizine-3-carboxylic acid]	< 0.1	< 10
Cc1ccc2c3c(oc2c1)-c1cc(=O)c(C(=O)O)cn1[C@H](C(C)C)C3 [Example 73, (S)-6-isopropyl-10-methyl-2-oxo-6,7-dihydro-2H-benzofuro[2,3-a]quinolizine-3-carboxylic acid]	< 0.1	> 25
CC(C)[C@@H]1Cc2c(oc3cc(C4CC4)ccc23)-c2cc(=O)c(C(=O)O)cn21 [Example 74, (S)-10-cyclopropyl-6-isopropyl-2-oxo-6,7-dihydro-2H-benzofuro[2,3-a]quinolizine-3-carboxylic acid]	< 0.1	10 to 25
CC(C)[C@@H]1Cc2c(oc3cc(-c4ccsc4)ccc23)-c2cc(=O)c(C(=O)O)cn21 [Example 76, (S)-6-isopropyl-2-oxo-10-(thiophen-3-yl)-6,7-dihydro-2H-benzofuro[2,3-a]quinolizine-3-carboxylic acid]	< 0.1	> 25
CC(C)[C@@H]1Cc2c(oc3c(OC(F)F)cccc23)-c2cc(=O)c(C(=O)O)cn21 [Example 77, (S)-11-(difluoromethoxy)-6-isopropyl-2-oxo-6,7-dihydro-2H-benzofuro[2,3-a]quinolizine-3-carboxylic acid]	< 0.1	> 25
